Source: ChEMBL document CHEMBL3885861, “Open TG-GATES”

Species: Rattus norvegicus
Experiment: Open TG-GATES - Regimen: Single
Type: toxicity, organism-based, Sprague-Dawley
Design: regimen Single, gender Male, age 6 weeks
Conditions: in vivo, po, 30 mg/kg, route gavage, dose level Low; for APTT / Bas / Eos / Fbg / Hb / Ht / Lym / MCHC / MCV / Mono / Neu / PT / Plat / RBC / Ret / WBC: tissue Blood; for KIDNEY_L / KIDNEY_R / KIDNEY_TOTAL: tissue Kidney; for LIVER: tissue Liver; for ALP / ALT / AST / BUN / CRE / Ca / Cl / DBIL / GLC / IP / K / LDH / Na / PL / RALB / TBIL / TC / TG / TP / gamma-GTP: tissue Plasma

## CS(=O)(=O)Nc1ccc([N+](=O)[O-])cc1Oc1ccccc1 [NIMESULIDE]
3 h
  TERMINAL_BW: 200.4 g
  APTT: 16.6 s
  Bas: 0%
  Eos: 1%
  Fbg: 231 mg/dL
  Hb: 13.1 g/dL
  Ht: 39.1%
  Lym: 80.8%
  MCHC: 33.6%
  MCV: 63.4 fL
  Mono: 5%
  Neu: 13.4%
  PT: 12.5 s
  Plat: 127.7 x10_4/uL
  RBC: 616.4 x10_4/ul
  Ret: 11.7%
  WBC: 116.6 x10_2/uL
  KIDNEY_L: 0.9 g
  KIDNEY_R: 0.9 g
  KIDNEY_TOTAL: 1.8 g
  LIVER: 9 g
  ALP: 803 IU/L
  ALT: 39.6 IU/L
  AST: 69.8 IU/L
  BUN: 16.6 mg/dL
  CRE: 0.6 mg/dL
  Ca: 10.9 mg/dL
  Cl: 107.6 meq/L
  DBIL: 0.064 mg/dL
  GLC: 208.4 mg/dL
  IP: 9.2 mg/dL
  K: 5 meq/L
  LDH: 106 IU/L
  Na: 141.2 meq/L
  PL: 134.4 mg/dL
  RALB: 3.7 g/dL
  TBIL: 0.3 mg/dL
  TC: 78.2 mg/dL
  TG: 47.8 mg/dL
  TP: 5.2 g/dL
  gamma-GTP: 1.6 IU/L
6 h
  TERMINAL_BW: 196.1 g
  APTT: 17.4 s
  Bas: 0%
  Eos: 1%
  Fbg: 201.6 mg/dL
  Hb: 13.7 g/dL
  Ht: 40.5%
  Lym: 74.6%
  MCHC: 33.8%
  MCV: 65.6 fL
  Mono: 9.2%
  Neu: 15%
  PT: 12.6 s
  Plat: 111.4 x10_4/uL
  RBC: 618 x10_4/ul
  Ret: 10.6%
  WBC: 84.5 x10_2/uL
  KIDNEY_L: 0.9 g
  KIDNEY_R: 0.9 g
  KIDNEY_TOTAL: 1.8 g
  LIVER: 8.3 g
  ALP: 790 IU/L
  ALT: 33 IU/L
  AST: 62.2 IU/L
  BUN: 13.8 mg/dL
  CRE: 0.6 mg/dL
  Ca: 10.7 mg/dL
  Cl: 106.6 meq/L
  DBIL: 0.054 mg/dL
  GLC: 200 mg/dL
  IP: 10.2 mg/dL
  K: 5 meq/L
  LDH: 86.8 IU/L
  Na: 139.8 meq/L
  PL: 119.6 mg/dL
  RALB: 3.7 g/dL
  TBIL: 0.4 mg/dL
  TC: 68 mg/dL
  TG: 56.6 mg/dL
  TP: 5.2 g/dL
  gamma-GTP: 1.2 IU/L
9 h
  TERMINAL_BW: 200.7 g
  APTT: 16.7 s
  Bas: 0%
  Eos: 0.6%
  Fbg: 207.8 mg/dL
  Hb: 13.2 g/dL
  Ht: 39.5%
  Lym: 81.4%
  MCHC: 33.5%
  MCV: 66.3 fL
  Mono: 8.2%
  Neu: 10%
  PT: 12.3 s
  Plat: 111.8 x10_4/uL
  RBC: 596.2 x10_4/ul
  Ret: 11%
  WBC: 78.5 x10_2/uL
  KIDNEY_L: 1 g
  KIDNEY_R: 1 g
  KIDNEY_TOTAL: 1.9 g
  LIVER: 8.4 g
  ALP: 888.4 IU/L
  ALT: 30.8 IU/L
  AST: 61 IU/L
  BUN: 15 mg/dL
  CRE: 0.5 mg/dL
  Ca: 10.6 mg/dL
  Cl: 108 meq/L
  DBIL: 0.014 mg/dL
  GLC: 201 mg/dL
  IP: 10.2 mg/dL
  K: 4.9 meq/L
  LDH: 99 IU/L
  Na: 139.4 meq/L
  PL: 135.8 mg/dL
  RALB: 3.9 g/dL
  TBIL: 0.4 mg/dL
  TC: 78.2 mg/dL
  TG: 41 mg/dL
  TP: 5.3 g/dL
  gamma-GTP: 1.4 IU/L
24 h
  TERMINAL_BW: 212.5 g
  APTT: 17.2 s
  Bas: 0%
  Eos: 1.2%
  Fbg: 199.2 mg/dL
  Hb: 13.6 g/dL
  Ht: 40.7%
  Lym: 71.2%
  MCHC: 33.4%
  MCV: 63.8 fL
  Mono: 8.2%
  Neu: 19.4%
  PT: 11.7 s
  Plat: 109.8 x10_4/uL
  RBC: 638.4 x10_4/ul
  Ret: 10.3%
  WBC: 124.8 x10_2/uL
  KIDNEY_L: 0.9 g
  KIDNEY_R: 1 g
  KIDNEY_TOTAL: 1.9 g
  LIVER: 10.6 g
  ALP: 968.4 IU/L
  ALT: 44 IU/L
  AST: 68.8 IU/L
  BUN: 19.2 mg/dL
  CRE: 0.6 mg/dL
  Ca: 10.8 mg/dL
  Cl: 106 meq/L
  DBIL: 0.012 mg/dL
  GLC: 190.6 mg/dL
  IP: 7.6 mg/dL
  K: 4.9 meq/L
  LDH: 99.2 IU/L
  Na: 140.2 meq/L
  PL: 151.6 mg/dL
  RALB: 4 g/dL
  TBIL: 0.3 mg/dL
  TC: 81 mg/dL
  TG: 90 mg/dL
  TP: 5.5 g/dL
  gamma-GTP: 2 IU/L
